These results are taken from PubChem BioAssay AID602237 (National Center for Advancing Translational Sciences (NCATS), 2012).

≈ marks a conversion by molar mass, not a printed value.

In this data set the test system is aqueous kinetic solubility, PBS pH 7.4, LC-UV/MS. In words: qHTS for Activators of Human alpha-Glucosidase as a Potential Chaperone Treatment of Pompe Disease: Aqueous Solubility. The note with it: hits give high values. An excerpt:
Alpha-glucosidase is responsible for hydrolysis of terminal, non-reducing 1,4-linked alpha-D-glucose residues with release of alpha-D-glucose. It is a lysosomal hydrolase that is required for the degradation of a small percentage (1-3%) of cellular glycogen in human. Deficiency of this enzyme results in glycogen-storage disease type II (GSDII), also referred to as Pompe disease, an autosomal recessive disorder. Structurally normal glycogen is accumulated in lysosomes and cytoplasm in affected patients, primarily in muscle tissues. Excessive glycogen storage within lysosomes may interrupt normal functioning of other organelles and leads to cellular injury. In turn, this leads to enlargement and dysfunction of the entire organ involved (eg, cardiomyopathy and muscle weakness). It has reported that the improper folding and trafficking of alpha-glucosidase resulting from the genetic mutations may account for a significant number of Pompe patients. […]
1. […] Concentration of the supernatant was determined by LC-UV or LC-MS/MS […]
(In general: Quantitative high-throughput screening tests each substance at several concentrations.)

In general, solubility refers to how much of the substance goes into solution per volume. For the molecule `CCCN1CNc2c(c(=O)[nH]c(=S)n2Cc2ccc(OC)c(OC)c2)C1`, the solubility was 289 µM (≈ 109 µg/mL).
